Some test systems named below: COLO 205 colon; MCF7 breast; NCI-H522 lung; CCRF-CEM leukemia; NCI-H23 lung; SNB-19 CNS; HS 578T breast; HT29 colon; M14 melanoma; HOP-92 NSCLC.
Test in all cases: NCI-60 cell line screen, 48 h

Structures are written as SMILES.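 Results reflect a 48-hour exposure of cells in 96-well plates to compound at five concentrations. GI50 marks 50% less growth. Definition used: TGI = concentration required for complete inhibition of growth.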

As for `C/C(=N\Nc1cc(C)c2ccccc2n1)c1ccccn1`, the GI50 with COLO 205 colon is under 18.8 nM; in the test with MCF7 breast, 89.4 nM; in the test with NCI-H522 lung, 53.4 nM; in the test with CCRF-CEM leukemia, under 26.9 nM; with NCI-H23 lung it was 172 nM; in the test with SNB-19 CNS it was 159 nM. Moreover, the results for the GI50 in the test with HS 578T breast, in the test on HT29 colon and with M14 melanoma were 1910 nM, 40.8 nM and 66 nM, respectively. Further, the TGI is 1980 nM with COLO 205 colon; 1160 nM in the test with MCF7 breast; 319 nM in the test on NCI-H522 lung; 571 nM with CCRF-CEM leukemia; 8490 nM with NCI-H23 lung; 13600 nM in the test on SNB-19 CNS. Besides, the TGI in the test on HS 578T breast turned out to be 16200 nM; in the test with HT29 colon, 1800 nM; in the test with M14 melanoma it was 1200 nM.
As to `Nc1c2c(c(O)c3c1=C(CO)C=N3)=NCCS2`, the GI50 in the test with COLO 205 colon is 39.7 nM; with NCI-H522 lung, 191 nM; in the test with CCRF-CEM leukemia it was 329 nM; with NCI-H23 lung, 97.1 nM; in the test on SNB-19 CNS, 147 nM; in the test on HS 578T breast it was 318 nM. Also, the GI50 in the test with HT29 colon is 79.4 nM; in the test on M14 melanoma it was 83.9 nM; with HOP-92 NSCLC, 761 nM. For the same molecule, the TGI in the test with COLO 205 colon worked out at 146 nM; in the test with NCI-H522 lung, 430 nM; with CCRF-CEM leukemia, 1900 nM; in the test with NCI-H23 lung it was 352 nM; with SNB-19 CNS, 284 nM; with HS 578T breast it was 812 nM. Also, the TGI with HT29 colon was determined as 370 nM; with M14 melanoma, 215 nM; in the test with HOP-92 NSCLC, 2500 nM.
For `C=C1C(C2(C)C(OC(C)=O)CC(=O)OC(C)(COC(C)=O)C2CC(=O)OC)C(OC=O)C(OC(=O)C(O)C(C)CC)C2(C)C(c3ccoc3)CC(=O)C12O` (centres undefined), the TGI with COLO 205 colon, with MCF7 breast, in the test on NCI-H522 lung, in the test on NCI-H23 lung, in the test with SNB-19 CNS and in the test with HS 578T breast was over 100000 nM throughout. Further, the TGI in the test with HT29 colon, with M14 melanoma and with HOP-92 NSCLC was over 100000 nM throughout.
`CC1=C(C(=O)Nc2ccc(Cl)c(Cl)c2)C(c2cccc(Cl)c2)NC(=O)N1` (centres undefined): the GI50 in the test with COLO 205 colon was 9420 nM; in the test on MCF7 breast, 2110 nM; in the test on NCI-H522 lung it was 9530 nM; with NCI-H23 lung it was 12700 nM; in the test with SNB-19 CNS, 9520 nM; in the test on HS 578T breast it was 9680 nM. Also, the GI50 in the test on M14 melanoma is 7790 nM; in the test with HOP-92 NSCLC, 18300 nM. Further, the TGI in the test with COLO 205 colon stood at 21200 nM; in the test with MCF7 breast it was 13500 nM; with NCI-H522 lung it was 18500 nM; in the test on NCI-H23 lung, 28500 nM; in the test with SNB-19 CNS, 21000 nM; in the test with HS 578T breast it was 22600 nM. For the same molecule, the TGI is 16100 nM in the test with M14 melanoma and over 28700 nM in the test on HOP-92 NSCLC.
As for `NC[C@H]1Nc2ccccc2[C@@H](O)C1O` (some centres undefined), the TGI in the test on COLO 205 colon, with MCF7 breast, with CCRF-CEM leukemia, in the test on NCI-H23 lung, in the test on SNB-19 CNS and in the test with HS 578T breast was over 100000 nM each time. Moreover, the TGI with HT29 colon, with M14 melanoma and in the test on HOP-92 NSCLC was over 100000 nM each time.
In the case of `NC1CCC(Nc2nc(NCc3ccc(-c4ccccc4O)nc3)c3ncn(C4CCCC4)c3n2)CC1` (centres undefined), the GI50 in the test on COLO 205 colon is 12 nM; in the test on NCI-H522 lung, under 10 nM; in the test on CCRF-CEM leukemia it was under 10 nM; in the test with NCI-H23 lung it was 21.4 nM; in the test on SNB-19 CNS it was under 14.7 nM; in the test on HS 578T breast, under 11 nM. In addition, the figures for the GI50 in the test with HT29 colon, with M14 melanoma and in the test with HOP-92 NSCLC were under 10 nM, 11.2 nM and 20 nM, respectively. Besides, the TGI with COLO 205 colon is 27.8 nM; with NCI-H522 lung it was 10 nM; in the test with CCRF-CEM leukemia, 1220 nM; in the test on NCI-H23 lung, 66.4 nM; with SNB-19 CNS, 1320 nM; in the test with HS 578T breast, 1340 nM. Further, the TGI was found to be 210 nM in the test with HT29 colon, 55.2 nM in the test with M14 melanoma and 77 nM with HOP-92 NSCLC.
As to `C=C(NC(=O)C(=C)NC(=O)c1csc(C2=NC3c4csc(n4)C4NC(=O)c5csc(n5)C(C(C)(O)C(C)O)NC(=O)C5CSC(=N5)C(=CC)NC(=O)C(C(C)O)NC(=O)c5csc(n5)C3(CC2)NC(=O)C(C)NC(=O)C(=C)NC(=O)C(C)NC(=O)C(C(C)CC)NC2C=Cc3c(C(C)O)cc(nc3C2O)C(=O)OC4C)n1)C(N)=O` (centres undefined), the GI50 in the test on COLO 205 colon is 2720 nM; in the test on MCF7 breast, 5700 nM; with NCI-H522 lung it was 2070 nM; in the test on CCRF-CEM leukemia it was 1830 nM; in the test with NCI-H23 lung, 13700 nM; in the test with SNB-19 CNS it was 54000 nM. Also, the GI50 is over 100000 nM in the test with HS 578T breast, 10400 nM with HT29 colon and 3490 nM in the test with M14 melanoma. Also, the TGI in the test with COLO 205 colon is 13700 nM; with MCF7 breast it was over 100000 nM; with NCI-H522 lung it was 4760 nM; in the test on CCRF-CEM leukemia, 5240 nM; in the test with NCI-H23 lung, over 100000 nM; in the test on SNB-19 CNS, over 100000 nM. Also, the TGI was over 100000 nM in the test with HS 578T breast, over 100000 nM with HT29 colon and 12700 nM in the test with M14 melanoma.
Regarding `Cc1ccc(NC2=C(Cl)C(=O)N(Cc3ccc(Cl)cc3)C2=O)cc1O`, the GI50 in the test with COLO 205 colon was 10700 nM; in the test on MCF7 breast it was 6730 nM; in the test with NCI-H522 lung, 11600 nM; with CCRF-CEM leukemia it was 4640 nM; with NCI-H23 lung, 5560 nM; with SNB-19 CNS it was 10800 nM. Further, the GI50 with HS 578T breast is 16400 nM; with M14 melanoma, 13800 nM. Further, the TGI in the test on COLO 205 colon came out at 41000 nM; in the test with MCF7 breast, 27500 nM; in the test on NCI-H522 lung, 34300 nM; in the test on CCRF-CEM leukemia, 60000 nM; in the test on NCI-H23 lung, 23700 nM; in the test with SNB-19 CNS it was 39000 nM. The TGI in the test with HS 578T breast was determined as 75800 nM; in the test with M14 melanoma it was 38000 nM.
On to `CC(=Nc1ccccc1)C1=C(O)C(Cc2ccc(O)cc2)NC1=O` (centres undefined), for which the GI50 in the test with COLO 205 colon was 76 nM; in the test with MCF7 breast, 39.1 nM; in the test on CCRF-CEM leukemia, 131 nM; with NCI-H23 lung, 139 nM; in the test on SNB-19 CNS it was 230 nM; in the test with HS 578T breast, 77.1 nM. The GI50 was 47.2 nM in the test with HT29 colon, 46.9 nM in the test with M14 melanoma and 82 nM in the test on HOP-92 NSCLC. For the same molecule, the TGI was 280 nM in the test with COLO 205 colon; over 100000 nM in the test with MCF7 breast; over 100000 nM in the test on CCRF-CEM leukemia; over 100000 nM in the test with NCI-H23 lung; over 100000 nM with SNB-19 CNS; 452 nM with HT29 colon. Also, the TGI in the test with M14 melanoma was 269 nM; with HOP-92 NSCLC it was over 100000 nM.
